Measured values as given in US5336759A, “Biologically active peptide derived from frog (frog CNP)” (priority 1990, dated 1994).
Read-outs that look alike come from different tables or passages of the source. Bridge positions count the residues as written; N and C are the ends. Ends that are not written are not given here. Peptide text beside a SMILES is read from it.

Legend:
[1] = tested on: anesthetized rats; experiment: Diuretic and natriuretic action in anesthetized rats; assay type: in vivo, rat; conditions: for excretion Cl- / excretion K+ / excretion Na+ / excretion urine: urine collected 15 min before and after injection, Means±S.E.M., three rats
Protocol: (§1) Diuretic action of fCNP was measured in accordance with the method described in Kangawa et al and Sudoh et al (Kangawa, K. et al., Biochem. Biophys. Res. Commun., 118, 131-139, 1984; Sudoh, T., Kangawa, K., Minamino, N. and Matsuo, H. Nature, 332, 78-81 , 1988). Male SD rats (weight 300-400 g) were anesthetized by intraperitoneally receiving 50 mg/kg pentobarbital, and a tracheal cannula (PE-240, Cray Adams) was provided to secure an airway. A cannula for measuring the blood pressure (PE-50) was inserted into one of the femoral arteries, and Ringer solution was injected through a cannula (PE-10) inserted into the femoral venous, at a constant rate of 1.8 ml/hr. Urine was collected into a test tube through a bladder cannula of silastic tube (inside diameter 0.02 inch, outside diameter 0.037 inch, Dow Corning). The collection of urine was carried out for 15 min before the administration of the peptides, at 5 min intervals after the administration till 15 min, and then at appropriate time intervals. The effect of the peptides was measured by comparing the amount of the urine samples and the concentration of the electrolyte in the urine samples, as well as by the change of the blood pressure.
In the above assay, a predetermined amount of fCNP was dissolved in 0.1N acetic acid, and neutralized with one tenth volume of 1.3M Tris solution. Then, the solution was diluted with 50 μl of a sterile physiological water, and administered through the cervical vein.
In Table 3, diuretic and natriuretic responses are shown in terms of the amount of the urine, the percentages in the decreases of the excretion of Na^+, K^+ and Cl^- (Means±S.E.M.), in which urine samples were collected separately over 15 min before and after the intravenous injection of the peptides to anesthetized rats. Three rats were used for each peptide.

[2] = tested on: chicken rectum
Protocol: Relaxant activity in chicken rectum was measured in accordance with the method of […] and Currie ([…]. and Matsuo, H., Biochem. Biophys. Res. Commun., 118, 131-139, 1984; Currie, […]., Cole, […]. and Needleman, P. Science, 221, 71-73, 1983). The values are averages of six repeats. […] Although fCNP lacked the tail sequence at the C-terminal which had been considered to be important for analog peptides in displaying biological activities such as diuretic action (Watanabe, T. X., Noda, Y., Chino […]. and Imai, M. Eur. J. […] Relative activity is defined as the activity of equimolar amount of peptides when the activity of α-hANP is 100.

[3] = tested on: anesthetized rats; experiment: Vasodepressor action (blood pressure) in anesthetized rats; assay type: in vivo, rat; parameters: decrease of blood pressure at the contract phase of heart: unit not given here
Protocol: as §1, with “Kangawa” left out, “([…].” for “(Kangawa, K.”, “[…].,” for “T., Kangawa, K.,”, “pressure. In the above assay, a predetermined amount of fCNP was dissolved in 0.1N acetic acid, and neutralized with one tenth volume of 1.3M Tris solution. […]” for “pressure.”

[4] = relaxant activity of equimolar amount of peptide, activity of α-hANP = 100, averages of six repeats

## α-hANP: A-type (atrial) natriuretic peptide used as reference, activity set to 100 (SLRRSSCFGGRMDRIGAQSGLGCNSFRY; ends and bridges not checked; cysteine pairing not given here; UniProt P01160 124-151, looked up) [reference compound]
[1]; 3.0 μg/kg intravenous
  excretion Cl-: 445 ± 67%
  excretion K+: 291 ± 19%
  excretion Na+: 572 ± 84%
  excretion urine: 461 ± 51%
[2]; [4]
  relative activity: 100

## pBNP-26: diuretic peptide; B-type (brain) natriuretic peptide (DSGCFGRRLDRIGSLSGLGCNVLRRY; ends and bridges not checked; cysteine pairing not given here; UniProt P07634 106-131, looked up) [reference compound]
[2]; [4]
  relative activity: 270

## CC[C@H](C)[C@@H]1NC(=O)[C@H](CCCNC(=N)N)NC(=O)[C@H](CC(=O)O)NC(=O)[C@H](CC(C)C)NC(=O)[C@H](CCCCN)NC(=O)[C@H](C(C)C)NC(=O)CNC(=O)[C@H](Cc2ccccc2)NC(=O)[C@@H](NC(=O)CNC(=O)[C@H](CCCNC(=N)N)NC(=O)[C@H](CO)NC(=O)[C@H](Cc2ccc(O)cc2)NC(=O)CN)CSSC[C@@H](C(=O)O)NC(=O)CNC(=O)[C@H](CC(C)C)NC(=O)CNC(=O)[C@H](CO)NC(=O)[C@H](Cc2ccccc2)NC(=O)[C@H](C)NC(=O)CNC1=O [fCNP] (H-GYSRGCFGVKLDRIGAFSGLGC-OH; disulfide 6-22)
[1]; 30 μg/kg intravenous
  excretion Cl-: 193 ± 50%
  excretion K+: 163 ± 54%
  excretion Na+: 184 ± 26%
  excretion urine: 192 ± 51%
[1]; 100 μg/kg intravenous
  excretion Cl-: 251 ± 43%
  excretion K+: 217 ± 58%
  excretion Na+: 344 ± 36%
  excretion urine: 315 ± 24%
[1]; 300 μg/kg intravenous
  excretion Cl-: 369 ± 6%
  excretion K+: 210 ± 33%
  excretion Na+: 428 ± 29%
  excretion urine: 410 ± 27%
[1]; ratio to α-hANP, anesthetized rats
  diuretic and natriuretic actions compared to that of α-hANP: about 1/100
[2]
  relative activity: 321
  relaxant activity in chicken rectum (in words): strong relaxant activity which was comparable to pCNP
[2]; listed as synthetic fCNP
  relaxant activity in chicken rectum (in words): positive relaxant activity
[2]; relative to fANP-21
  relaxant activity, times higher than fANP-21: ~7 times
[2]; relative to α-hANP
  relaxant activity, times higher than α-hANP: about 3 times
[3]; 10 nmol of fCNP, over a period of 30 min, typical experiment
  decrease of blood pressure at the contract phase of heart: 25-30
[3]; anesthetized rats
  vasodepressor action (in words): weak vasodepressor action
